These are literature values, as cited in US10219515B2, “Agrochemical adjuvant containing 2-oxo-1,3-dioxolan-4 carboxylates” (BASF SE, priority 2014, dated 2019).

Like-named read-outs stand apart in the source and are kept apart here.

Regarding `O=C(O)CNCP(=O)(O)O` [glyphosate], the “acid dissociation constant pKa” value is given as approximately 11.0 (amine), approximately 2.3 (carboxylic acid), approximately 0.8 (first phosphonic acid) and approximately 6.0 (second phosphonic acid).
